According to US9029389B2 (Institut Pasteur Korea, priority 2011, dated 2015):

How the values were obtained:
[1] = molecular target: T1, Human 5-lipoxygenase (Homo sapiens, UniProt P09917); experiment: Activity of compounds against 5-LO enzyme (LTB4 measurement and/or fluorescence method); format: biochemical; details: for inhibition at 10 µM: 5-LO, single concentration of 10 uM in duplicate; for IC50: 6 or 11 point dose response in duplicate
T1 construct: purchased Cayman 60402; host or cells: insect cells
T1 sequence (P09917 1-674): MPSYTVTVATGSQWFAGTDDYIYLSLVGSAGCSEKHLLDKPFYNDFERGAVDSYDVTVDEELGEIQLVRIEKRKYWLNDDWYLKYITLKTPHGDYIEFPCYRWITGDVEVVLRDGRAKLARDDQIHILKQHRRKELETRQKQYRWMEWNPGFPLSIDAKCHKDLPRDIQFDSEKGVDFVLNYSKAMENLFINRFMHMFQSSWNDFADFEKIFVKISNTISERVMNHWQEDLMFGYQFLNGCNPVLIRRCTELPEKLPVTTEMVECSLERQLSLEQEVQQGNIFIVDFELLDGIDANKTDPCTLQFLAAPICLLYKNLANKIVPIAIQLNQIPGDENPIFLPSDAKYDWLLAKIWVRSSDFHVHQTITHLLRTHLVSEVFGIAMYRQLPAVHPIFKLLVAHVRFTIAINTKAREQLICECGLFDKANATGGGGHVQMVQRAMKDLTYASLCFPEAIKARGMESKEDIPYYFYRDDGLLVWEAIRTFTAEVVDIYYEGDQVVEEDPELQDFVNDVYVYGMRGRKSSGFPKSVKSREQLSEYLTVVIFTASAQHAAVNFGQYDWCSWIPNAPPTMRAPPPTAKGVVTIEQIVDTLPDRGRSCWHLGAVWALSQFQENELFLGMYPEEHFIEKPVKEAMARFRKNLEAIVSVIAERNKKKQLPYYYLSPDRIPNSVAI
Procedure, shortened: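 Insect-cell human 5-LO preincubated 15 min at RT with compound (pH 7.4, 2 mM CaCl2, 0.1 mM ATP, 1% DMSO), then 3 uM arachidonic acid for 5 min at 37 °C; LTB4 quantified by EIA and/or LC/MS/MS. Alternatively, fluorescence of 5-HpETE via H2DCFDA, 100 uM ATP, 3 uM arachidonic acid, 5 min, RT; single 10 uM screen then 6- or 11-point IC50.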

Row | inhibition at 10 µM [1] [%] | IC50 [1] [µM] | melting point [°C] | SMILES
1 | > 69 | 1 to 20 | 138 to 139 | CCc1nc2cc(Cl)ccn2c1C(=O)NCc1ccc(N2CCC(Oc3ccc(F)cc3)CC2)cc1 [compound 70, 7-Chloro-2-ethyl-N-(4-(4-(4-fluorophenoxy)piperidin-1-yl)benzyl)imidazo[1,2-a]pyridine-3-carboxamide]
2 | < 40 | – | 195 | CCc1nc2cc(Cl)ccn2c1C(=O)NCc1ccc(N2CCOCC2)cc1 [compound 93, 7-Chloro-2-ethyl-N-(4-morpholinobenzyl)imidazo[1,2-a]pyridine-3-carboxamide]
3 | < 40 | – | 190 | CCc1nc2cc(C)ccn2c1C(=O)NCc1ccc(N2CCOCC2)cc1 [compound 94, 2-Ethyl-7-methyl-N-(4-morpholinobenzyl)imidazo[1,2-a]pyridine-3-carboxamide]
4 | 40 to 69 | – | 192 | CCc1nc2cc(C)ccn2c1C(=O)NCc1ccc2ccccc2c1 [compound 95, 2-Ethyl-7-methyl-N-(naphthalen-2-ylmethyl)imidazo[1,2-a]pyridine-3-carboxamide]
5 | > 69 | < 1 | 141 to 142 | CCc1nc2cc(Cl)ccn2c1C(=O)NCc1ccc(Oc2ccc(OC(F)(F)F)cc2)cc1 [compound 128, 7-Chloro-2-ethyl-N-(4-(4-(trifluoromethoxy)phenoxy)benzyl)imidazo[1,2-a]pyridine-3-carboxamide]
6 | < 40 | – | 223 to 224 | CCc1nc2ccc(Cl)cn2c1C(=O)NCc1ccc(C#N)cc1 [compound 134, 6-Chloro-N-(4-cyanobenzyl)-2-ethylimidazo[1,2-a]pyridine-3-carboxamide]
7 | < 40 | – | 179 to 180 | CCc1nc2ccc(Cl)cn2c1C(=O)NCc1ccc(C(F)(F)F)cc1 [compound 135, 6-Chloro-2-ethyl-N-(4-(trifluoromethyl)benzyl)imidazo[1,2-a]pyridine-3-carboxamide]
8 | < 40 | – | 129 to 130 | CCc1nc2ccc(Cl)cn2c1C(=O)NCCc1ccc(OC)cc1 [compound 136, 6-Chloro-2-ethyl-N-(4-methoxyphenethyl)imidazo[1,2-a]pyridine-3-carboxamide]
9 | 40 to 69 | – | – | CCc1nc2ccc(Cl)cn2c1CN1CCC(CCc2ccc(F)cc2)CC1 [compound 349, 6-chloro-2-ethyl-3-((4-(4-fluorophenethyl)piperidin-1-yl)methyl)imidazo[1,2-a]pyridine]
10 | < 40 | – | – | CCc1nc2ccc(Cl)cn2c1C(=O)NCc1nc2ccc(Cl)cc2[nH]1 [compound 365, 6-chloro-N-((6-chloro-1H-benzo[d]imidazol-2-yl)methyl)-2-ethylimidazo[1,2-a]pyridine-3-carboxamide]
11 | – | 1 to 20 | – | CCc1nc2ccc(Cl)cn2c1C(=O)N1CCCC(OCc2ccc(OC(F)(F)F)cc2)C1 (stereo not shown) [compound 382, (6-chloro-2-ethylimidazo[1,2-a]pyridin-3-yl)(3-(4-(trifluoromethoxy)benzyloxy)-piperidin-1-yl)methanone]
12 | – | > 20 | – | CCc1nc2cccnn2c1C(=O)NCc1ccc(-c2ccc(Cl)cc2)cc1 [compound 388, N-((4′-Chloro-[1,1′-biphenyl]-4-yl)methyl)-2-ethylimidazo[1,2-b]pyridazine-3-carboxamide]
13 | – | 1 to 20 | – | CCc1nc2ccc(Cl)cn2c1C(=O)N1CC[C@H](OCc2ccc(OC(F)(F)F)cc2)C1 [compound 390, (S)-(6-chloro-2-ethylimidazo[1,2-a]pyridin-3-yl)(3-(4-(trifluoromethoxy)benzyloxy)-pyrrolidin-1-yl)methanone]
14 | – | 1 to 20 | – | CCc1nc2ccc(Cl)cn2c1C(=O)N1CC[C@@H](OCc2ccc(OC(F)(F)F)cc2)C1 [compound 391, (R)-(6-chloro-2-ethylimidazo[1,2-a]pyridin-3-yl)(3-(4-(trifluoromethoxy)benzyloxy)-pyrrolidin-1-yl)methanone]

The next lines start with the molecule.

Row | SMILES | inhibition at 10 µM [1] [%] | IC50 [1] [µM] | melting point [°C]
15 | CCCC(=O)NCc1ccc(N2CCN(c3ccc(CNC(=O)c4c(CC)nc5cc(Cl)ccn45)cc3)CC2)cc1 [compound 125, N-(4-(4-(4-(Butyramidomethyl)phenyl)piperazin-1-yl)benzyl)-7-chloro-2-ethylimidazo[1,2-a]pyridine-3-carboxamide] | 40 to 69 | – | 238 to 239.2
16 | CCc1nc2cc(Cl)ccn2c1C(=O)NCc1ccc(N2CCN(Cc3ccc(F)cc3)CC2)cc1 [compound 126, 7-Chloro-2-ethyl-N-(4-(4-(4-fluorobenzyl)piperazin-1-yl)benzyl)imidazo[1,2-a]pyridine-3-carboxamide] | > 69 | 1 to 20 | 141 to 142
17 | CCc1nc2ccc(Cl)cn2c1C(=O)N1CCC(Cn2cc(C(O)(CC)C(F)(F)F)nn2)CC1 (stereo not shown) [compound 350, (6-chloro-2-ethylimidazo[1,2-a]pyridin-3-yl)(4-((4-(1,1,1-trifluoro-2-hydroxybutan-2-yl)-1H-1,2,3-triazol-1-yl)methyl)piperidin-1-yl)methanone] | < 40 | – | –
18 | CCc1nc2ccccn2c1CN1CCC(Cn2cc(C(O)(CC)C(F)(F)F)nn2)CC1 (stereo not shown) [compound 351, 2-(1-((1-((2-ethylimidazo[1,2-a]pyridin-3-yl)methyl)piperidin-4-yl)methyl)-1H-1,2,3-triazol-4-yl)-1,1,1-trifluorobutan-2-ol] | < 40 | – | –
19 | CCc1nc2ccccn2c1C(=O)NCc1ccc(CC2CCOCC2)cc1 [compound 357, 2-ethyl-N-(4-((tetrahydro-2H-pyran-4-yl)methyl)benzyl)imidazo[1,2-a]pyridine-3-carboxamide] | < 40 | – | –
20 | CCc1nc2cc(Cl)ccn2c1CNc1ccc(NC2CCN(c3ccc(F)cc3)CC2)cc1 [compound 375, N1-((7-chloro-2-ethylimidazo[1,2-a]pyridin-3-yl)methyl)-N4-(1-(4-fluorophenyl)piperidin-4-yl)benzene-1,4-diamine] | > 69 | – | –
21 | CCc1nc2cc(Cl)ccn2c1CNc1ccc(N2CCC(c3ccc(OC(F)(F)F)cc3)CC2)cc1 [compound 376, N-((7-chloro-2-ethylimidazo[1,2-a]pyridin-3-yl)methyl)-4-(4-(4-(trifluoromethoxy)phenyl)piperidin-1-yl)aniline] | > 69 | – | –
22 | CCc1nc2cc(Cl)ccn2c1C(=O)N1CCC(Oc2ccc(OC(F)(F)F)cc2)CC1 [compound 380, (7-Chloro-2-ethylimidazo[1,2-a]pyridin-3-yl)(4-(4-(trifluoromethoxy)phenoxy)piperidin-1-yl)methanone] | – | < 1 | –
23 | CCc1nc2ccc(Cl)cn2c1CNCc1ccc(N2CCN(c3ccc(F)cc3)CC2)cc1 [compound 381, 1-(6-chloro-2-ethylimidazo[1,2-a]pyridin-3-yl)-N-(4-(4-(4-fluorophenyl)piperazin-1-yl)benzyl)methanamine] | – | 1 to 20 | –
24 | CCc1nc2ncccn2c1C(=O)N1CCC(OCc2ccc(OC(F)(F)F)cc2)CC1 [compound 385, (2-Ethylimidazo[1,2-a]pyrimidin-3-yl)(4-((4-(trifluoromethoxy)benzyl)oxy)piperidin-1-yl)methanone] | – | > 20 | –
25 | CCc1nc2cccnn2c1C(=O)N1CCC(OCc2ccc(OC(F)(F)F)cc2)CC1 [compound 387, (2-Ethylimidazo[1,2-b]pyridazin-3-yl)(4-((4-(trifluoromethoxy)benzyl)oxy)piperidin-1-yl)methanone] | – | > 20 | –
26 | CCc1nc2cnccn2c1C(=O)N1CCC(OCc2ccc(OC(F)(F)F)cc2)CC1 [compound 389, (2-Ethylimidazo[1,2-a]pyrazin-3-yl)(4-((4-(trifluoromethoxy)benzyl)oxy)piperidin-1-yl)methanone] | – | > 20 | –
27 | CCc1nc2cc(Cl)ccn2c1C(=O)N1CCC(OCc2ccc(OC(F)(F)F)cc2)CC1 [compound 393, (7-chloro-2-ethylimidazo[1,2-a]pyridin-3-yl)(4-(4-(trifluoromethoxy)benzyloxy)piperidin-1-yl)methanone] | – | < 1 | –
28 | CCc1nc2ccc(Cl)cn2c1CNc1ccc(Oc2ccc(OC(F)(F)F)cc2)cc1 [compound 394, N-((6-chloro-2-ethylimidazo[1,2-a]pyridin-3-yl)methyl)-4-(4-(trifluoromethoxy)-phenoxy)aniline] | – | < 1 | –
29 | CCc1nc2ccc(Cl)cn2c1CN1CCN(c2ccc(F)cc2)CC1 [compound 397, 6-chloro-2-ethyl-3-((4-(4-fluorophenyl)piperazin-1-yl)methyl)imidazo[1,2-a]pyridine] | – | > 20 | –
30 | CCc1nc2cnccn2c1CNc1ccc(N2CCN(c3ccc(F)cc3)CC2)cc1 [compound 398, N-((2-Ethylimidazo[1,2-a]pyrazin-3-yl)methyl)-4-(4-(4-fluorophenyl)piperazin-1-yl)aniline] | – | < 1 | –
